Results: US9139557B2, “Carboxamide compounds and their use as calpain inhibitors” (Abbott GmbH & Co. KG, priority 2006, dated 2015)

Experiments:
Format in all cases: biochemical
cathepsin B = biological target: T1, cathepsin B (Homo sapiens, UniProt P07858); assay: Cathepsin B enzyme inhibition in vitro (kinetic fluorescence assay); settings: Ki(cathepsin B)/Ki(calpain) ratio
T1 construct: cathepsin B—isolated from human liver; purchased Calbiochem 219362; host or cells: human liver (tissue isolate)
Procedure, shortened: (§1)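 Kinetic fluorescence (ex 390/em 460 nm), RT. Calpain-I: 20 nM erythrocyte-derived, 100 μM Suc-Leu-Tyr-AMC, imidazole/CaCl2, pH 7.3. Cathepsins, pH 6.0 MES/EDTA/cysteine: B 0.25 nM liver, 100 μM Z-Phe-Arg-AMC; L 1 nM liver, 2 μM Z-Phe-Arg-AMC; S 0.5 nM recombinant, 20 μM Z-Val-Val-Arg-AMC. Cheng-Prusoff Ki, mean of 2–4 curves.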

cathepsin K = biological target: T2, cathepsin K (Homo sapiens, UniProt P43235); assay: Cathepsin K enzyme inhibition in vitro (kinetic fluorescence assay); settings: Ki(cathepsin K)/Ki(calpain) ratio
T2 construct: purchased Calbiochem 342001; host or cells: E. coli
T2 sequence (P43235 115-329): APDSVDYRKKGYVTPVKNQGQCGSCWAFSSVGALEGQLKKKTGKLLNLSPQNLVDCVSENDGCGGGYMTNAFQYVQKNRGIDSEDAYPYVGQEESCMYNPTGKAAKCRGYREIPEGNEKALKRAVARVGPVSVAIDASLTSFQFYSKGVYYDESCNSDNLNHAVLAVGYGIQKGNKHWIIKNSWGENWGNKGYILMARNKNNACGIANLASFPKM
Method: Testing for blockade of the corresponding enzymic activities was carried out by means of kinetic fluorescence assays (excitation 390 nm, emission 460 nm).
Apparent Ki values were calculated from the experimentally determined IC50 values by the Cheng-Prussoff relation assuming a reversible competitive enzyme inhibition. The Km values of the substrates used under the assay conditions indicated above were: 90 μM (Z-Phe-Arg-AMC, cathepsin B), 10 μM (Z-Gly-Pro-Arg-AMC, cathepsin K), 2 μM (Z-Phe-Arg-AMC, cathepsin L), and 30 μM (Z-Val-Val-Arg-AMC, cathepsin S).
The indicated Ki values are averages of the inhibition constants calculated on the basis of 2 to 4 independent dose-effect plots.
• 1. Calpain I: • 20 nM calpain-I—isolated from human erythrocytes (Calbiochem #208713), 100 μM Suc-Leu-Tyr-AMC (Bachem #1-1355) as substrate in buffer with 62 mM imidazole, 0.3 mM CaCl2, 0.10% CHAPS, 0.05% BSA, 1 mM DTT at pH 7.3 and room temperature. • 2. Cathepsin B: • 0.25 nM cathepsin B—isolated from human liver (Calbiochem #219362), 100 μM Z-Phe-Arg-AMC (Bachem #1-1160) as substrate 50 mM MES, 2 mM EDTA, 0.05% Brij 35, 2.5 mM L-cysteine, pH 6.0, room temperature. • 3. Cathepsin K: • 3 nM cathepsin K—activated from recombinant human procathepsin K from E. coli (Calbiochem #342001), 10 μM Z-Gly-Pro-Arg-AMC (Biomol #P-142) as substrate in 50 mM MES, 2 mM EDTA, 0.05% Brij 35, 2.5 mM L-cysteine, pH 6.0, room temperature. • 4. Cathepsin L: • 1 nM cathepsin L—isolated from human liver (Calbiochem #219402), 2 μM Z-Phe-Arg-AMC (Bachem #1-1160) as substrate in 50 mM MES, 2 mM EDTA, 0.05% Brij 35, 2.5 mM L-cysteine, pH 6.0, room temperature. • 5. Cathepsin S: • 0.5 nM recombinant human cathepsin S from E. coli (Calbiochem #219343), 20 μM Z-Val-Val-Arg-AMC (Bachem #1-1540) as substrate in 50 mM MES, 2 mM EDTA, 0.05% Brij 35, 2.5 mM L-cysteine, pH 6.0, room temperature.

cathepsin L = biological target: T3, cathepsin L (Homo sapiens, UniProt P07711); assay: Cathepsin L enzyme inhibition in vitro (kinetic fluorescence assay); settings: Ki(cathepsin L)/Ki(calpain) ratio
T3 construct: cathepsin L—isolated from human liver; purchased Calbiochem 219402; host or cells: human liver (tissue isolate)
Procedure, shortened: as §1

cathepsin S = biological target: T4, cathepsin S (Homo sapiens, UniProt P25774); assay: Cathepsin S enzyme inhibition in vitro (kinetic fluorescence assay); settings: Ki(cathepsin S)/Ki(calpain) ratio
T4 construct: purchased Calbiochem 219343; host or cells: E. coli
Procedure, shortened: as §1

T3 sequence (P07711 114-333): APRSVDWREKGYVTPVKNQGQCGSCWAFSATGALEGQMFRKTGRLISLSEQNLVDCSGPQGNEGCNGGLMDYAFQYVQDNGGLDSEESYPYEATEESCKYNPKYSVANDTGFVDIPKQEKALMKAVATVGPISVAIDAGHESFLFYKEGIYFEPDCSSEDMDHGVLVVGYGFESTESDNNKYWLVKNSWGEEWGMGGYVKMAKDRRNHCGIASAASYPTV
T4 sequence (P25774 115-331): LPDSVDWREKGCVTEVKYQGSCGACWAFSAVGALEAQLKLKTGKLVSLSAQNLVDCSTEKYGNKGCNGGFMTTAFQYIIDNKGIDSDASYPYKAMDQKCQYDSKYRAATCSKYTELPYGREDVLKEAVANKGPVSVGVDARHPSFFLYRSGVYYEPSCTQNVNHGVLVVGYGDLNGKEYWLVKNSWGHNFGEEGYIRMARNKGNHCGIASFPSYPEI

SMILES | Sel cat. B (cathepsin B) | Sel cat. K (cathepsin K) | Sel cat. L (cathepsin L) | Sel cat. S (cathepsin S)
COc1cc(Cl)ccc1-c1ccn(-c2ncccc2C(=O)NC(Cc2ccccc2)C(=O)C(N)=O)n1 (stereo not drawn) [Example 139, N-[3-Amino-2,3-dioxo-1-(phenylmethyl)propyl]-2-{3-[4-chloro-2-(methyloxy)phenyl]-1H-pyrazol-1-yl}pyridine-3-carboxamide] | + (+ means 10≦Ki(cathepsin B)/Ki(calpain)<30) | ++ (++ means a Ki(cathepsin K)/Ki(calpain) ratio of ≧30) | ++ (++ means a Ki(cathepsin L)/Ki(calpain) ratio of ≧50) | ++ (++ means a Ki(cathepsin S)/Ki(calpain) ratio of ≧100)
COc1ccc(-c2ccn(-c3ncccc3C(=O)NC(Cc3ccccc3)C(=O)C(N)=O)n2)cc1 (stereo not drawn) [Example 48, N-(3-Amino-1-benzyl-2,3-dioxopropyl)-2-[3-(4-methoxyphenyl)-1H-pyrazol-1-yl]nicotinamide] | + (+ means 10≦Ki(cathepsin B)/Ki(calpain)<30) | + (+ means 10≦Ki(cathepsin K)/Ki(calpain)<30) | ++ (++ means a Ki(cathepsin L)/Ki(calpain) ratio of ≧50) | ++ (++ means a Ki(cathepsin S)/Ki(calpain) ratio of ≧100)
NC(=O)C(=O)C(Cc1ccccc1)NC(=O)c1cccnc1-n1ccc(-c2ccccc2OC(F)(F)F)n1 (stereo not drawn) [Example 124, N-[3-Amino-2,3-dioxo-1-(phenylmethyl)propyl]-2-(3-{2-[(trifluoromethyl)oxy]phenyl}-1H-pyrazol-1-yl)pyridine-3-carboxamide] | ++ (++ means a Ki(cathepsin B)/Ki(calpain) ratio of ≧30) | ++ (++ means a Ki(cathepsin K)/Ki(calpain) ratio of ≧30) | ++ (++ means a Ki(cathepsin L)/Ki(calpain) ratio of ≧50) | ++ (++ means a Ki(cathepsin S)/Ki(calpain) ratio of ≧100)
NC(=O)C(=O)C(Cc1ccccc1)NC(=O)c1cccnc1-n1ccc(-c2cccc(C(F)(F)F)c2Cl)n1 (stereo not drawn) [Example 155, N-[3-Amino-2,3-dioxo-1-(phenylmethyl)propyl]-2-{3-[2-chloro-3-(trifluoromethyl)phenyl]-1H-pyrazol-1-yl}pyridine-3-carboxamide] | ++ (++ means a Ki(cathepsin B)/Ki(calpain) ratio of ≧30) | ++ (++ means a Ki(cathepsin K)/Ki(calpain) ratio of ≧30) | ++ (++ means a Ki(cathepsin L)/Ki(calpain) ratio of ≧50) | ++ (++ means a Ki(cathepsin S)/Ki(calpain) ratio of ≧100)
NC(=O)C(=O)C(Cc1ccccc1)NC(=O)c1cccnc1-n1ccc(-c2ccccc2F)n1 (stereo not drawn) [Example 76, N-(3-Amino-1-benzyl-2,3-dioxopropyl)-2-[3-(2-fluorophenyl)-1H-pyrazol-1-yl]nicotinamide] | ++ (++ means a Ki(cathepsin B)/Ki(calpain) ratio of ≧30) | + (+ means 10≦Ki(cathepsin K)/Ki(calpain)<30) | ++ (++ means a Ki(cathepsin L)/Ki(calpain) ratio of ≧50) | ++ (++ means a Ki(cathepsin S)/Ki(calpain) ratio of ≧100)
NC(=O)C(=O)C(Cc1ccccc1)NC(=O)c1cccnc1-n1ccc(-c2sccc2Cl)n1 (stereo not drawn) [Example 109, N-[3-Amino-2,3-dioxo-1-(phenylmethyl)propyl]-2-[3-(3-chloro-2-thienyl)-1H-pyrazol-1-yl]pyridine-3-carboxamide] | ++ (++ means a Ki(cathepsin B)/Ki(calpain) ratio of ≧30) | ++ (++ means a Ki(cathepsin K)/Ki(calpain) ratio of ≧30) | ++ (++ means a Ki(cathepsin L)/Ki(calpain) ratio of ≧50) | ++ (++ means a Ki(cathepsin S)/Ki(calpain) ratio of ≧100)
CC(C)c1ccc(-c2ccn(-c3ncccc3C(=O)NC(Cc3ccccc3)C(=O)C(N)=O)n2)cc1 (stereo not drawn) [Example 87, N-[3-Amino-2,3-dioxo-1-(phenylmethyl)propyl]-2-{3-[4-(1-methylethyl)phenyl]-1H-pyrazol-1-yl}pyridine-3-carboxamide] | ++ (++ means a Ki(cathepsin B)/Ki(calpain) ratio of ≧30) | ++ (++ means a Ki(cathepsin K)/Ki(calpain) ratio of ≧30) | ++ (++ means a Ki(cathepsin L)/Ki(calpain) ratio of ≧50) | ++ (++ means a Ki(cathepsin S)/Ki(calpain) ratio of ≧100)
COc1ccc(CC(NC(=O)c2cccnc2-n2ccc(-c3ccc(Cl)cc3Cl)n2)C(=O)C(N)=O)cc1 (stereo not drawn) [Example 98, N-(3-Amino-1-{[4-(methyloxy)phenyl]methyl}-2,3-dioxopropyl)-2-[3-(2,4-dichlorophenyl)-1H-pyrazol-1-yl]pyridine-3-carboxamide] | ++ (++ means a Ki(cathepsin B)/Ki(calpain) ratio of ≧30) | ++ (++ means a Ki(cathepsin K)/Ki(calpain) ratio of ≧30) | ++ (++ means a Ki(cathepsin L)/Ki(calpain) ratio of ≧50) | ++ (++ means a Ki(cathepsin S)/Ki(calpain) ratio of ≧100)
NC(=O)C(=O)C(Cc1ccccc1)NC(=O)c1cccnc1-n1ccc(-c2c(F)cc(F)cc2F)n1 (stereo not drawn) [Example 116, N-[3-Amino-2,3-dioxo-1-(phenylmethyl)propyl]-2-[3-(2,4,6-trifluorophenyl)-1H-pyrazol-1-yl]pyridine-3-carboxamide] | ++ (++ means a Ki(cathepsin B)/Ki(calpain) ratio of ≧30) | + (+ means 10≦Ki(cathepsin K)/Ki(calpain)<30) | ++ (++ means a Ki(cathepsin L)/Ki(calpain) ratio of ≧50) | ++ (++ means a Ki(cathepsin S)/Ki(calpain) ratio of ≧100)
NC(=O)C(=O)C(Cc1ccccc1)NC(=O)c1cccnc1-n1ccc(-c2ccc3c(c2)OC(F)(F)O3)n1 (stereo not drawn) [Example 118, N-[3-Amino-2,3-dioxo-1-(phenylmethyl)propyl]-2-[3-(2,2-difluoro-1,3-benzodioxol-5-yl)-1H-pyrazol-1-yl]pyridine-3-carboxamide] | ++ (++ means a Ki(cathepsin B)/Ki(calpain) ratio of ≧30) | + (+ means 10≦Ki(cathepsin K)/Ki(calpain)<30) | ++ (++ means a Ki(cathepsin L)/Ki(calpain) ratio of ≧50) | ++ (++ means a Ki(cathepsin S)/Ki(calpain) ratio of ≧100)
NC(=O)C(=O)C(Cc1ccc(Cl)cc1)NC(=O)c1cccnc1-n1ccc(-c2ccccc2)n1 (stereo not drawn) [Example 50, N-[3-Amino-1-(4-chlorobenzyl)-2,3-dioxopropyl]-2-(3-phenyl-1H-pyrazol-1-yl)nicotinamide] | + (+ means 10≦Ki(cathepsin B)/Ki(calpain)<30) | + (+ means 10≦Ki(cathepsin K)/Ki(calpain)<30) | + (+ means 30≦Ki(cathepsin L)/Ki(calpain)<50) | + (+ means 50≦Ki(cathepsin S)/Ki(calpain)<100)
NC(=O)C(=O)C(Cc1ccccc1)NC(=O)c1cccnc1-n1cc2c(n1)-c1ccccc1S(=O)(=O)C2 (stereo not drawn) [Example 174, N-[3-Amino-2,3-dioxo-1-(phenylmethyl)propyl]-2-(5,5-dioxidothiochromeno[4,3-c]pyrazol-2(4H)-yl)pyridine-3-carboxamide] | + (+ means 10≦Ki(cathepsin B)/Ki(calpain)<30) | + (+ means 10≦Ki(cathepsin K)/Ki(calpain)<30) | ++ (++ means a Ki(cathepsin L)/Ki(calpain) ratio of ≧50) | ++ (++ means a Ki(cathepsin S)/Ki(calpain) ratio of ≧100)
